Test results as given in ChEMBL document CHEMBL1201862, “PubChem BioAssay data set” (2004).
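Cells were grown in 96-well plates and exposed to each compound for 48 hours at five concentrations; endpoints were interpolated linearly between bracketing concentrations, or set to the highest concentration if not reached. GI50: concentration for 50% inhibition of growth.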 Activity calls are given as the source filed them. Cut-off read from the data, not from the text of the source: active = GI50 up to about 1.1 µM and inactive = higher.

How the values were obtained:
Experiment in all cases: growth of human tumour cells (NCI), 48 h
BT-549 = tested on: BT-549
CAKI-1 = tested on: CAKI-1
CCRF-CEM = tested on: CCRF-CEM
EKVX = tested on: EKVX
HCT-15 = tested on: HCT-15
HL-60 = tested on: HL-60
Hs-578T = tested on: Hs-578T
KM12 = tested on: KM12
LOX IMVI = tested on: LOX IMVI
MDA-MB-231 = tested on: MDA-MB-231
NCI-H522 = tested on: NCI-H522
NCI/ADR-RES = tested on: NCI/ADR-RES
OVCAR-4 = tested on: OVCAR-4
RXF 393 = tested on: RXF 393
SNB-75 = tested on: SNB-75
SR = tested on: SR
SW-620 = tested on: SW-620
TK-10 = tested on: TK-10
UACC-62 = tested on: UACC-62
UO-31 = tested on: UO-31

Compound	GI50 (BT-549)	GI50 (CAKI-1)	GI50 (CCRF-CEM)	GI50 (EKVX)	GI50 (HCT-15) [µM]	GI50 (HL-60)	GI50 (Hs-578T)	GI50 (KM12)	GI50 (LOX IMVI)	GI50 (MDA-MB-231)	GI50 (NCI-H522)	GI50 (NCI/ADR-RES)	GI50 (OVCAR-4)	GI50 (RXF 393)	GI50 (SNB-75)	GI50 (SR)	GI50 (SW-620)	GI50 (TK-10)	GI50 (UACC-62)	GI50 (UO-31)
O=C1Nc2ccccc2/C1=C1/Nc2ccccc2/C1=N\OCCOC1OCC(O)C(O)C1O (stereo not given)	> 100 µM (inactive)	6.78 µM (inactive)	> 100 µM (inactive)	> 100 µM (inactive)	> 100	> 100 µM (inactive)	> 100 µM (inactive)	0.453 µM (active)	8.59 µM (inactive)	> 100 µM (inactive)	> 100 µM (inactive)	> 100 µM (inactive)	> 100 µM (inactive)	50.6 µM (inactive)	> 100 µM (inactive)	33 µM (inactive)	> 100 µM (inactive)	81.3 µM (inactive)	95.1 µM (inactive)	> 100 µM (inactive)
COc1ccccc1NC(=O)C(=O)C(C#N)CC(C)(C)C=O (stereo not given)	> 100 µM (inactive)	> 100 µM (inactive)	–	> 100 µM (inactive)	> 100	> 100 µM (inactive)	> 100 µM (inactive)	> 100 µM (inactive)	> 100 µM (inactive)	> 100 µM (inactive)	> 100 µM (inactive)	> 100 µM (inactive)	> 100 µM (inactive)	> 100 µM (inactive)	> 100 µM (inactive)	> 100 µM (inactive)	> 100 µM (inactive)	> 100 µM (inactive)	> 100 µM (inactive)	> 100 µM (inactive)
Fc1ccc(OCc2nc3cc(C(F)(F)F)ccc3nc2-c2ccccc2)cc1	> 46.1 µM (inactive)	> 100 µM (inactive)	> 44.1 µM (inactive)	> 86.9 µM (inactive)	> 66.2	> 47 µM (inactive)	> 81.7 µM (inactive)	> 100 µM (inactive)	> 100 µM (inactive)	> 100 µM (inactive)	28.4 µM (inactive)	98.2 µM (inactive)	92 µM (inactive)	> 100 µM (inactive)	> 100 µM (inactive)	41.9 µM (inactive)	> 100 µM (inactive)	–	> 100 µM (inactive)	> 100 µM (inactive)
COCC1OCCN1C (stereo not given)	> 100 µM (inactive)	> 100 µM (inactive)	> 100 µM (inactive)	> 100 µM (inactive)	> 100	–	> 100 µM (inactive)	88.3 µM (inactive)	> 100 µM (inactive)	> 100 µM (inactive)	> 100 µM (inactive)	> 100 µM (inactive)	> 100 µM (inactive)	> 100 µM (inactive)	> 100 µM (inactive)	> 100 µM (inactive)	> 100 µM (inactive)	> 100 µM (inactive)	> 100 µM (inactive)	> 100 µM (inactive)
CC(=O)OCC(OC(C)=O)C(OC(C)=O)C(OC(C)=O)C(C=NN(C(C)=O)S(=O)(=O)c1ccc(/C=C2\NC(=O)N(C)C2=O)cc1)OC(C)=O (stereo not given)	33.9 µM (inactive)	40.2 µM (inactive)	13 µM (inactive)	43 µM (inactive)	25.4	–	32.9 µM (inactive)	42.4 µM (inactive)	21.8 µM (inactive)	36.1 µM (inactive)	23.7 µM (inactive)	> 100 µM (inactive)	53.5 µM (inactive)	20.5 µM (inactive)	33.7 µM (inactive)	23.4 µM (inactive)	34.4 µM (inactive)	3.35 µM (inactive)	13.6 µM (inactive)	57.5 µM (inactive)
COc1cccc2c(N)c3cccc(C(=O)NCCN(C)C)c3nc12	1.19 µM (inactive)	0.103 µM (active)	< 0.01 µM (active)	0.174 µM (active)	1.38	–	0.0746 µM (active)	0.252 µM (active)	0.0513 µM (active)	0.214 µM (active)	0.0241 µM (active)	0.979 µM (active)	0.157 µM (active)	0.213 µM (active)	0.0944 µM (active)	0.0152 µM (active)	0.0968 µM (active)	0.439 µM (active)	0.357 µM (active)	0.462 µM (active)
CCOC(=O)c1nc2ccc(C(F)(F)F)cc2nc1Nc1ccc(OC)c(OC)c1	97.9 µM (inactive)	24.5 µM (inactive)	> 100 µM (inactive)	> 100 µM (inactive)	> 100	> 100 µM (inactive)	> 100 µM (inactive)	> 100 µM (inactive)	> 100 µM (inactive)	48.9 µM (inactive)	> 100 µM (inactive)	> 100 µM (inactive)	–	> 100 µM (inactive)	21.6 µM (inactive)	17.8 µM (inactive)	> 100 µM (inactive)	41.8 µM (inactive)	> 100 µM (inactive)	> 100 µM (inactive)
O=c1c2ccccc2nc(N/N=C/c2ccc([N+](=O)[O-])cc2)n1-c1ccccc1	18 µM (inactive)	21.6 µM (inactive)	> 100 µM (inactive)	20 µM (inactive)	> 100	> 100 µM (inactive)	6.35 µM (inactive)	36.3 µM (inactive)	3.08 µM (inactive)	11.7 µM (inactive)	31.4 µM (inactive)	13.4 µM (inactive)	6.1 µM (inactive)	7.87 µM (inactive)	7.93 µM (inactive)	> 100 µM (inactive)	–	18 µM (inactive)	27 µM (inactive)	> 100 µM (inactive)
O=c1[nH]c(=O)n(C2CC(O)C(CO)O2)cc1/N=N/NCCc1ccccc1 (stereo not given)	> 10 µM (inactive)	> 100 µM (inactive)	> 100 µM (inactive)	> 100 µM (inactive)	> 100	> 100 µM (inactive)	> 100 µM (inactive)	> 100 µM (inactive)	> 100 µM (inactive)	> 100 µM (inactive)	> 100 µM (inactive)	> 100 µM (inactive)	> 100 µM (inactive)	> 100 µM (inactive)	> 100 µM (inactive)	> 100 µM (inactive)	–	> 100 µM (inactive)	> 100 µM (inactive)	> 100 µM (inactive)
NS(=O)(=O)c1nnc(NC(=O)/C=C/C(=O)O)s1	> 100 µM (inactive)	> 100 µM (inactive)	–	> 100 µM (inactive)	> 100	> 100 µM (inactive)	> 100 µM (inactive)	> 100 µM (inactive)	> 100 µM (inactive)	> 100 µM (inactive)	> 100 µM (inactive)	> 100 µM (inactive)	> 100 µM (inactive)	> 100 µM (inactive)	–	> 100 µM (inactive)	> 100 µM (inactive)	> 100 µM (inactive)	> 100 µM (inactive)	> 100 µM (inactive)
O=C(Nc1ccccc1)c1cc2cc(CCl)ccc2oc1=O	> 100 µM (inactive)	> 100 µM (inactive)	> 100 µM (inactive)	> 100 µM (inactive)	> 100	41.6 µM (inactive)	15 µM (inactive)	> 100 µM (inactive)	> 100 µM (inactive)	64.1 µM (inactive)	70.3 µM (inactive)	> 100 µM (inactive)	> 100 µM (inactive)	33.4 µM (inactive)	34.7 µM (inactive)	41.5 µM (inactive)	> 100 µM (inactive)	39.8 µM (inactive)	16.6 µM (inactive)	> 100 µM (inactive)
